According to patent US12421210B2, “Fused bicyclic heterocycles as therapeutic agents” (NEW YORK UNIVERSITY, priority 2018, dated 2025):

Target: human NAMPT enzyme (His-hNAMPT) (Homo sapiens (Human), UniProt P43490)
Assay: NAMPT enzymatic inhibition assay (fluorescence, NADH product)
Assay type: biochemical
Settings: [BPS]; read-out: NAMPT IC50 (μM) [BPS]

Sequence of human NAMPT enzyme (His-hNAMPT) (P43490 whole entry): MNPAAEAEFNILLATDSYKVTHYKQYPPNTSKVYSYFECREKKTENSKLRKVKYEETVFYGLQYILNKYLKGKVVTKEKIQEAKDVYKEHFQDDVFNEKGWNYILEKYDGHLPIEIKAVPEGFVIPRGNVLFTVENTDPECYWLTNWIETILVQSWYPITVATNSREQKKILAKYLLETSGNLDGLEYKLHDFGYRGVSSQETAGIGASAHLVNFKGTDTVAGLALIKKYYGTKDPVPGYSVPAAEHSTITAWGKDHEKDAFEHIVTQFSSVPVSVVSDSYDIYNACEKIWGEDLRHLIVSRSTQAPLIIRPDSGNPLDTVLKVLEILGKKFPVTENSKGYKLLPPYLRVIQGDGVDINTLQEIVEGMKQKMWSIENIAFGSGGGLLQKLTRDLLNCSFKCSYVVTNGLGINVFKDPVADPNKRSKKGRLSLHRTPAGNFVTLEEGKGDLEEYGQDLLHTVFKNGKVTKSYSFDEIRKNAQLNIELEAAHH

Row | Compound | IC50
1 | N#CN=C(NCC[C@@H]1[C@H]2CN(C(=O)c3ccccc3)C[C@@H]12)Nc1ccncc1 [Example 228, (E)-1-(2-((1R,5S,6s)-3-benzoyl-3-azabicyclo[3.1.0]hexan-6-yl)ethyl)-2-cyano-3-(pyridin-4-yl)guanidine] | 0.01 to 0.49 µM
2 | CC1(OC(=O)N2C[C@@H]3[C@@H](CCNC(=O)N4Cc5ccccc5C4)[C@@H]3C2)COC1 [Example 230, (1R,5S,6s)-3-methyloxetan-3-yl 6-(2-(isoindoline-2-carboxamido)ethyl)-3-azabicyclo[3.1.0]hexane-3-carboxylate] | 0.01 to 0.49 µM
3 | CC(C)(C)OC(=O)N1C[C@@H]2[C@@H](CNC(=O)c3cc(-c4cccnc4)on3)[C@@H]2C1 [Example 231, (1R,5S,6s)-tert-butyl 6-((5-(pyridin-3-yl)isoxazole-3-carboxamido)methyl)-3-azabicyclo[3.1.0]hexane-3-carboxylate] | 1 to 29 µM
4 | CC(C)(C)OC(=O)N1C[C@@H]2[C@@H](CNC(=O)/C=C/c3cccnc3)[C@@H]2C1 [Example 232, (1R,5S,6s)-tert-butyl 6-(((E)-3-(pyridin-3-yl)acrylamido)methyl)-3-azabicyclo[3.1.0]hexane-3-carboxylate] | 0.01 to 0.49 µM
5 | CC(C)(C)OC(=O)N1C[C@@H]2[C@@H](CNC(=O)c3cc4ccncc4o3)[C@@H]2C1 [Example 235, (1R,5S,6s)-tert-butyl 6-((furo[2,3-c]pyridine-2-carboxamido)methyl)-3-azabicyclo[3.1.0]hexane-3-carboxylate] | 1 to 29 µM
6 | O=C(/C=C/c1cccnc1)NC[C@@H]1[C@H]2CN(C(=O)c3ccccc3)C[C@@H]12 [Example 237, (E)-N-(((1R,5S,6s)-3-benzoyl-3-azabicyclo[3.1.0]hexan-6-yl)methyl)-3-(pyridin-3-yl)acrylamide] | 0.5 to 0.99 µM
7 | Nc1ccc(/C=C/C(=O)NC[C@@H]2[C@H]3CN(C(=O)c4ccccc4)C[C@@H]23)cn1 [Example 240, (E)-3-(6-aminopyridin-3-yl)-N-(((1R,5S,6s)-3-benzoyl-3-azabicyclo[3.1.0]hexan-6-yl)methyl)acrylamide] | 1 to 29 µM
8 | CC(C)(C)OC(=O)N1C[C@@H]2[C@H](C1)[C@H]2CC1(NC(=O)/C=C/c2cccnc2)CC1 [Example 242, (1R,5S,6s)-tert-butyl 6-((1-((E)-3-(pyridin-3-yl)acrylamido)cyclopropyl)methyl)-3-azabicyclo[3.1.0]hexane-3-carboxylate] | > 30 µM
9 | CC(C)(C)OC(=O)N1C[C@@H]2[C@H](C1)[C@H]2C(O)CNC(=O)/C=C/c1ccc(N)nc1 (stereo partly drawn) [Example 252, (1R,5S,6r)-tert-butyl 6-(2-((E)-3-(6-aminopyridin-3-yl)acrylamido)-1-hydroxyethyl)-3-azabicyclo[3.1.0]hexane-3-carboxylate] | 1 to 29 µM
10 | CC(C)(C)OC(=O)N1C[C@@H]2[C@H](C1)[C@H]2C(F)CNC(=O)/C=C/c1ccc(N)nc1 (stereo partly drawn) [Example 254, (1R,5S,6r)-tert-butyl 6-(2-((E)-3-(6-aminopyridin-3-yl)acrylamido)-1-fluoroethyl)-3-azabicyclo[3.1.0]hexane-3-carboxylate] | 0.01 to 0.49 µM

The next lines start with the values.

Row | IC50 | Compound
11 | 0.01 to 0.49 µM | CC1(OC(=O)N2C[C@@H]3[C@@H](CCN/C(=N\C#N)Nc4ccncc4)[C@@H]3C2)COC1 [Example 229, (1R,5S,6s)-3-methyloxetan-3-yl 6-(2-((E)-2-cyano-3-(pyridin-4-yl)guanidino)ethyl)-3-azabicyclo[3.1.0]hexane-3-carboxylate]
12 | > 30 µM | CC(C)(C)OC(=O)N1C[C@@H]2[C@@H](CNC(=O)COc3cccnc3)[C@@H]2C1 [Example 233, (1R,5S,6s)-tert-butyl 6-((2-(pyridin-3-yloxy)acetamido)methyl)-3-azabicyclo[3.1.0]hexane-3-carboxylate]
13 | 1 to 29 µM | CC(C)(C)OC(=O)N1C[C@@H]2[C@@H](CNC(=O)/C=C/c3ccc(N)nc3)[C@@H]2C1 [Example 234, (1R,5S,6s)-tert-butyl 6-(((E)-3-(6-aminopyridin-3-yl)acrylamido)methyl)-3-azabicyclo[3.1.0]hexane-3-carboxylate]
14 | > 30 µM | CC(C)(C)OC(=O)N1C[C@@H]2[C@@H](CNC(=O)c3cc4ccncc4s3)[C@@H]2C1 [Example 236, (1R,5S,6s)-tert-butyl 6-((thieno[2,3-c]pyridine-2-carboxamido)methyl)-3-azabicyclo[3.1.0]hexane-3-carboxylate]
15 | 1 to 29 µM | CC1(OC(=O)N2C[C@@H]3[C@@H](CNC(=O)/C=C/c4cccnc4)[C@@H]3C2)COC1 [Example 238, (1R,5S,6s)-3-methyloxetan-3-yl 6-(((E)-3-(pyridin-3-yl)acrylamido)methyl)-3-azabicyclo[3.1.0]hexane-3-carboxylate]
16 | 1 to 29 µM | CC1(OC(=O)N2C[C@@H]3[C@@H](CNC(=O)/C=C/c4ccc(N)nc4)[C@@H]3C2)COC1 [Example 239, (1R,5S,6s)-3-methyloxetan-3-yl 6-(((E)-3-(6-aminopyridin-3-yl)acrylamido)methyl)-3-azabicyclo[3.1.0]hexane-3-carboxylate]
17 | 1 to 29 µM | CC(C)(C)OC(=O)N1C[C@@H]2[C@H](C1)[C@H]2CC1(NC(=O)/C=C/c2ccc(N)nc2)CC1 [Example 241, (1R,5S,6s)-tert-butyl 6-((1-((E)-3-(6-aminopyridin-3-yl)acrylamido)cyclopropyl)methyl)-3-azabicyclo[3.1.0]hexane-3-carboxylate]
18 | 0.01 to 0.49 µM | CC(C)(C)OC(=O)N1C[C@@H]2[C@H](C1)[C@H]2C(O)CNC(=O)/C=C/c1cccnc1 (stereo partly drawn) [Example 253, (1R,5S,6r)-tert-butyl 6-(1-hydroxy-2-((E)-3-(pyridin-3-yl)acrylamido)ethyl)-3-azabicyclo[3.1.0]hexane-3-carboxylate]

Same assay, conditions: [HDB]; read-out: NAMPT IC50 (μM) [HDB]

Row | Compound | IC50
19 | O=C(NCC[C@@H]1[C@H]2CN(c3nc(Cl)ncc3F)C[C@@H]12)c1cc2ccncc2s1 [Example 223, N-(2-((1R,5S,6s)-3-(2-chloro-5-fluoropyrimidin-4-yl)-3-azabicyclo[3.1.0]hexan-6-yl)ethyl)thieno[2,3-c]pyridine-2-carboxamide] | 0.01 to 0.49 µM
20 | O=C(NCC[C@@H]1[C@H]2CN(c3nc(Cl)ncc3F)C[C@@H]12)c1cnc2[nH]ncc2c1 [Example 224, N-(2-((1R,5S,6s)-3-(2-chloro-5-fluoropyrimidin-4-yl)-3-azabicyclo[3.1.0]hexan-6-yl)ethyl)-1H-pyrazolo[3,4-b]pyridine-5-carboxamide] | 0.01 to 0.49 µM
21 | O=C(/C=C/c1cccnc1)NCC[C@@H]1[C@H]2CN(Cc3ccccc3)C[C@@H]12 [Example 243, (E)-N-(2-((1R,5S,6s)-3-benzyl-3-azabicyclo[3.1.0]hexan-6-yl)ethyl)-3-(pyridin-3-yl)acrylamide] | 0.01 to 0.49 µM
22 | O=C(/C=C/c1cccnc1)NCC[C@@H]1[C@H]2CN(Cc3ccc(C(F)(F)F)cc3)C[C@@H]12 [Example 244, (E)-3-(pyridin-3-yl)-N-(2-((1R,5S,6s)-3-(4-(trifluoromethyl)benzyl)-3-azabicyclo[3.1.0]hexan-6-yl)ethyl)acrylamide] | 0.01 to 0.49 µM
23 | CC(C)N1C[C@@H]2[C@@H](CCNC(=O)/C=C/c3cccnc3)[C@@H]2C1 [Example 245, (E)-N-(2-((1R,5S,6s)-3-isopropyl-3-azabicyclo[3.1.0]hexan-6-yl)ethyl)-3-(pyridin-3-yl)acrylamide] | 1 to 29 µM
24 | O=C(/C=C/c1cccnc1)NCC[C@@H]1[C@H]2CN(CC3CCOCC3)C[C@@H]12 [Example 246, (E)-3-(pyridin-3-yl)-N-(2-((1R,5S,6s)-3-((tetrahydro-2H-pyran-4-yl)methyl)-3-azabicyclo[3.1.0]hexan-6-yl)ethyl)acrylamide] | 0.5 to 0.99 µM
25 | O=C(/C=C/c1cccnc1)NCC[C@@H]1[C@H]2CN(Cc3ccc(F)cc3)C[C@@H]12 [Example 247, (E)-N-(2-((1R,5S,6s)-3-(4-fluorobenzyl)-3-azabicyclo[3.1.0]hexan-6-yl)ethyl)-3-(pyridin-3-yl)acrylamide] | 0.01 to 0.49 µM
26 | O=C(/C=C/c1cccnc1)NCC[C@@H]1[C@H]2CN(Cc3ccc(F)cc3F)C[C@@H]12 [Example 248, (E)-N-(2-((1R,5S,6s)-3-(2,4-difluorobenzyl)-3-azabicyclo[3.1.0]hexan-6-yl)ethyl)-3-(pyridin-3-yl)acrylamide] | 0.01 to 0.49 µM
27 | CC(c1ccccc1)N1C[C@@H]2[C@@H](CCNC(=O)/C=C/c3cccnc3)[C@@H]2C1 (stereo partly drawn) [Example 249, (E)-N-(2-((1R,5S,6s)-3-(1-phenylethyl)-3-azabicyclo[3.1.0]hexan-6-yl)ethyl)-3-(pyridin-3-yl)acrylamide] | 0.01 to 0.49 µM
28 | O=C(/C=C/c1cccnc1)NCC[C@@H]1[C@H]2CN(CCc3ccc(F)cc3)C[C@@H]12 [Example 250, (E)-N-(2-((1R,5S,6s)-3-(4-fluorophenethyl)-3-azabicyclo[3.1.0]hexan-6-yl)ethyl)-3-(pyridin-3-yl)acrylamide] | 0.01 to 0.49 µM
29 | O=C(/C=C/c1cccnc1)NCC[C@@H]1[C@H]2CN(Cc3cc(Cl)cc(Cl)c3)C[C@@H]12 [Example 251, (E)-N-(2-((1R,5S,6s)-3-(3,5-dichlorobenzyl)-3-azabicyclo[3.1.0]hexan-6-yl)ethyl)-3-(pyridin-3-yl)acrylamide] | 0.01 to 0.49 µM

The remaining lines, values ahead:

Row | IC50 | Compound
30 | < 0.01 µM | O=C(NCC[C@@H]1[C@H]2CN(c3nc(Cl)ncc3F)C[C@@H]12)N1Cc2ccccc2C1 [Example 225, N-(2-((1R,5S,6s)-3-(2-chloro-5-fluoropyrimidin-4-yl)-3-azabicyclo[3.1.0]hexan-6-yl)ethyl)isoindoline-2-carboxamide]
31 | 0.01 to 0.49 µM | O=C(NCC[C@@H]1[C@H]2CN(c3nc(Cl)ncc3F)C[C@@H]12)N1Cc2ccncc2C1 [Example 226, N-(2-((1R,5S,6s)-3-(2-chloro-5-fluoropyrimidin-4-yl)-3-azabicyclo[3.1.0]hexan-6-yl)ethyl)-1H-pyrrolo[3,4-c]pyridine-2(3H)-carboxamide]
32 | 0.01 to 0.49 µM | O=C(NCC[C@@H]1[C@H]2CN(c3nc(Cl)ncc3F)C[C@@H]12)N1Cc2cccnc2C1 [Example 227, N-(2-((1R,5S,6s)-3-(2-chloro-5-fluoropyrimidin-4-yl)-3-azabicyclo[3.1.0]hexan-6-yl)ethyl)-5H-pyrrolo[3,4-b]pyridine-6(7H)-carboxamide]
33 | 1 to 29 µM | CC(C)(C)OC(=O)N1C[C@@H]2[C@@H](CNC(=O)COc3cccnc3)[C@@H]2C1 [Example 233, (1R,5S,6s)-tert-butyl 6-((2-(pyridin-3-yloxy)acetamido)methyl)-3-azabicyclo[3.1.0]hexane-3-carboxylate]
